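Each compound was tested at five concentrations against cells in 96-well plates for 48 hours. GI50 is the concentration that inhibits growth by half.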 The source made the active and inactive calls. No stated cut-off is given here; in the data, active = GI50 up to about 1.1 µM and inactive = higher.
Assays:
Test in all cases: DTP human tumour cell line panel, 48 h
NCI-H226 = test system: NCI-H226
SN12C = test system: SN12C
CAKI-1 = test system: CAKI-1
MOLT-4 = test system: MOLT-4
NCI-H23 = test system: NCI-H23
NCI/ADR-RES = test system: NCI/ADR-RES
KM12 = test system: KM12
HCC 2998 = test system: HCC 2998
SK-OV-3 = test system: SK-OV-3
MCF7 = test system: MCF7
UACC-257 = test system: UACC-257
SNB-19 = test system: SNB-19
HT-29 = test system: HT-29
K562 = test system: K562
SK-MEL-2 = test system: SK-MEL-2
A498 = test system: A498
ACHN = test system: ACHN
MDA-MB-231 = test system: MDA-MB-231
DU-145 = test system: DU-145

Compound | GI50 (NCI-H226) | GI50 (SN12C) | GI50 (CAKI-1) | GI50 (MOLT-4) | GI50 (NCI-H23) | GI50 (NCI/ADR-RES) | GI50 (KM12) | GI50 (HCC 2998) | GI50 (SK-OV-3) | GI50 (MCF7) | GI50 (UACC-257) | GI50 (SNB-19) | GI50 (HT-29) | GI50 (K562) | GI50 (SK-MEL-2) | GI50 (A498) | GI50 (ACHN) | GI50 (MDA-MB-231) | GI50 (DU-145)
N#CC(OC1OC(COC2OC(CO)C(O)C(O)C2O)C(O)C(O)C1O)c1ccccc1 (stereo not drawn) | > 225 µM (inactive) | > 225 µM (inactive) | > 225 µM (inactive) | > 225 µM (inactive) | > 225 µM (inactive) | > 225 µM (inactive) | > 225 µM (inactive) | > 225 µM (inactive) | > 225 µM (inactive) | > 225 µM (inactive) | > 225 µM (inactive) | > 225 µM (inactive) | > 225 µM (inactive) | > 225 µM (inactive) | > 225 µM (inactive) | > 225 µM (inactive) | – | – | –
CCOC(=O)COc1cc(-c2ccccc2F)nc2cc3c(cc12)OCO3 | > 100 µM (inactive) | > 100 µM (inactive) | > 100 µM (inactive) | 27.8 µM (inactive) | > 100 µM (inactive) | > 100 µM (inactive) | > 100 µM (inactive) | > 100 µM (inactive) | > 100 µM (inactive) | > 100 µM (inactive) | > 100 µM (inactive) | – | > 100 µM (inactive) | 38.1 µM (inactive) | > 100 µM (inactive) | – | > 100 µM (inactive) | > 100 µM (inactive) | > 100 µM (inactive)
O=C1CSC(Cc2nc3ccccc3[nH]2)=N1 | 13.9 µM (inactive) | 18.1 µM (inactive) | 15.8 µM (inactive) | 9.98 µM (inactive) | 18.6 µM (inactive) | – | 17.6 µM (inactive) | 18.3 µM (inactive) | 36.1 µM (inactive) | – | 19.7 µM (inactive) | 21.1 µM (inactive) | 24.7 µM (inactive) | 15 µM (inactive) | 16.3 µM (inactive) | 5.98 µM (inactive) | 5.41 µM (inactive) | – | –
CC1=C(O)C(=O)[C@@H]2O[C@@H]2C1=O | 14.5 µM (inactive) | 19.3 µM (inactive) | 5.69 µM (inactive) | 2.97 µM (inactive) | 12.7 µM (inactive) | 10.7 µM (inactive) | 14.1 µM (inactive) | 15.2 µM (inactive) | 33.4 µM (inactive) | 10 µM (inactive) | 11.1 µM (inactive) | 32.8 µM (inactive) | 12.1 µM (inactive) | 5.64 µM (inactive) | 16 µM (inactive) | 7.13 µM (inactive) | – | – | –
C=C1CCCC2OC(OC)CCC12 (stereo not drawn) | > 100 µM (inactive) | > 100 µM (inactive) | > 100 µM (inactive) | > 100 µM (inactive) | > 100 µM (inactive) | – | > 100 µM (inactive) | > 100 µM (inactive) | > 100 µM (inactive) | – | > 100 µM (inactive) | > 100 µM (inactive) | > 100 µM (inactive) | > 100 µM (inactive) | > 100 µM (inactive) | > 100 µM (inactive) | > 100 µM (inactive) | – | –
CSCC[C@@H](NC(=O)[C@H](CC(C)C)NC(=O)C(Cc1cnc[nH]1)NC(=O)CNC(=O)[C@@H](NC(=O)[C@H](C)NC(=O)[C@H](Cc1c[nH]c2ccccc12)NC(=O)[C@H](CCC(N)=O)NC(=O)[C@@H](N)CC(N)=O)C(C)C)C(N)=O (stereo partly drawn) | > 100 µM (inactive) | > 100 µM (inactive) | – | > 55.7 µM (inactive) | > 100 µM (inactive) | > 100 µM (inactive) | > 100 µM (inactive) | > 100 µM (inactive) | > 100 µM (inactive) | > 100 µM (inactive) | > 88.7 µM (inactive) | > 100 µM (inactive) | > 100 µM (inactive) | > 100 µM (inactive) | > 100 µM (inactive) | > 100 µM (inactive) | – | – | –
C=C1CC(OC)(C(O)C(=O)N[C@H]2OCO[C@H]3C2O[C@H](C[C@H](O)COC)C(C)(C)C3OC)O[C@H](C)[C@@H]1C (stereo partly drawn) | < 0.00773 µM (active) | < 0.00773 µM (active) | < 0.00773 µM (active) | < 0.00773 µM (active) | < 0.00773 µM (active) | < 0.00773 µM (active) | < 0.00773 µM (active) | < 0.00773 µM (active) | – | < 0.00773 µM (active) | < 0.00773 µM (active) | < 0.00773 µM (active) | < 0.00773 µM (active) | < 0.00773 µM (active) | – | < 0.00773 µM (active) | – | – | –
O=c1oc2ccc(Cl)cc2cc1-c1cn2cc(Cl)ccc2n1 | > 100 µM (inactive) | > 89.1 µM (inactive) | > 22.4 µM (inactive) | 6.46 µM (inactive) | > 100 µM (inactive) | 11.4 µM (inactive) | 2.54 µM (inactive) | > 73.6 µM (inactive) | > 100 µM (inactive) | 1.64 µM (inactive) | > 100 µM (inactive) | – | > 24.3 µM (inactive) | 5.05 µM (inactive) | > 100 µM (inactive) | – | > 100 µM (inactive) | > 70.3 µM (inactive) | > 100 µM (inactive)
O=P1(Oc2ccc(Cl)cc2Cl)Oc2cc3ccccc3cc2O1 | > 76.6 µM (inactive) | > 94.4 µM (inactive) | > 71.8 µM (inactive) | 23.5 µM (inactive) | 43.9 µM (inactive) | 84.1 µM (inactive) | 43.8 µM (inactive) | 20.8 µM (inactive) | > 100 µM (inactive) | 31.8 µM (inactive) | > 100 µM (inactive) | > 100 µM (inactive) | > 72.9 µM (inactive) | 46.2 µM (inactive) | 81.1 µM (inactive) | 29.1 µM (inactive) | – | – | –
O=C(CCc1nnc(S)[nH]1)Nc1cccc(C(F)(F)F)c1 | > 100 µM (inactive) | > 100 µM (inactive) | > 100 µM (inactive) | > 100 µM (inactive) | > 100 µM (inactive) | – | > 100 µM (inactive) | > 100 µM (inactive) | > 100 µM (inactive) | – | > 100 µM (inactive) | > 100 µM (inactive) | > 100 µM (inactive) | > 100 µM (inactive) | > 100 µM (inactive) | > 100 µM (inactive) | > 100 µM (inactive) | – | –
CCN(CC)CCCNc1n[n+]([O-])c2ccccc2[n+]1[O-] | 20.5 µM (inactive) | 4.68 µM (inactive) | 31.8 µM (inactive) | 2.73 µM (inactive) | 11.6 µM (inactive) | 42.4 µM (inactive) | 15 µM (inactive) | 3.46 µM (inactive) | – | 3.92 µM (inactive) | 14.2 µM (inactive) | 25.9 µM (inactive) | 11.1 µM (inactive) | 6.93 µM (inactive) | 4.74 µM (inactive) | 3.62 µM (inactive) | 6.41 µM (inactive) | 6.01 µM (inactive) | 18.4 µM (inactive)
CN(C)c1ccc(/C=C/C(=O)O)cc1 | > 100 µM (inactive) | > 100 µM (inactive) | > 100 µM (inactive) | > 100 µM (inactive) | – | – | > 100 µM (inactive) | > 100 µM (inactive) | > 100 µM (inactive) | – | > 100 µM (inactive) | > 100 µM (inactive) | > 100 µM (inactive) | > 100 µM (inactive) | > 100 µM (inactive) | > 100 µM (inactive) | > 100 µM (inactive) | – | –
CCCCC#C[I+]c1ccccc1 | 15.5 µM (inactive) | 14.5 µM (inactive) | 14 µM (inactive) | 3.82 µM (inactive) | 13.6 µM (inactive) | – | 14.2 µM (inactive) | 20.1 µM (inactive) | 16.4 µM (inactive) | – | 16.3 µM (inactive) | 16.9 µM (inactive) | 15.9 µM (inactive) | 15.2 µM (inactive) | 17.7 µM (inactive) | 31 µM (inactive) | 17.2 µM (inactive) | – | –

Reference: ChEMBL document CHEMBL1201862, “PubChem BioAssay data set” (2004)
